Positions count from the first letter of the chain named.
Tests used:
[1] = cited from earlier work
RDH10 protein = target: T1, RDH10 protein (Homo sapiens, UniProt Q8IZV5); assay: Surface plasmon resonance (SPR), Biacore T200; type: binding; conditions: RDH10 immobilized on CM5 chip; 25S-Antcin C 0.78-25 μM; FIG. 15B
T1 sequence (Q8IZV5 1-341): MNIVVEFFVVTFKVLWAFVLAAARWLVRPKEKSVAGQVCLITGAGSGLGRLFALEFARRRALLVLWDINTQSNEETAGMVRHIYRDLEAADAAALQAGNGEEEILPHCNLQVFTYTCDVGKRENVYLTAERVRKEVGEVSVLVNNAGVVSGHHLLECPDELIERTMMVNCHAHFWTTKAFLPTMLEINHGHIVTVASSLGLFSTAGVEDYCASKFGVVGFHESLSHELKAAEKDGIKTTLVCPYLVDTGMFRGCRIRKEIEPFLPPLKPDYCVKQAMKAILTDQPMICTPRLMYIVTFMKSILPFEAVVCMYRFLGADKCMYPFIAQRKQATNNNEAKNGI
Description: Using a Biacore T200 plasmon surface resonance instrument, RDH10 protein was immobilized on a CM5 sensor chip via an amine coupling reaction. The pH of the RDH10 protein was 4.5, and the final immobilization concentration was 50 μg/mL. The running buffer consisted of 50 mM Tris-Hcl buffer containing […] NaCl, 2 mM MgCl2, 0.05% Tween-20, and 5% DMSO. In the binding experiment, different concentrations of 25S-Antcin C (25, 12.5, 6.25, 3.12, 1.56, 0.78 μM) were dissolved in the running buffer. The flow rate was 30 μL/min, with a contact time of 60 seconds and a dissociation time of 60 seconds. Data were analyzed using Biacore software, and the kinetic analysis calculated the affinity constant (KD value).

L02 human liver cells = assay: Oleic acid-palmitic acid induced lipid deposition with RDH10 siRNA knockdown, L02 cells (Oil Red O); type: cell-based; conditions: 20 μM
NASH in MCD model mice [2] = assay: H&E liver histology in MCD mice, Example 12; type: in vivo, C57BL/6J mice; conditions: oral 4 weeks, 10 and 20 mg/kg, better than obeticholic acid 10 mg/kg, FIG. 17A
Description: (§1) Four-week-old male C57BL/6J mice were purchased from the Experimental Animal Center, Peking University Health Science Center. The mice were randomly divided into groups, with 10 mice per group. Methionine choline-deficient diet (MCD) was used to induce NASH, forming the MCD model mice. The model mice were treated with an oral administration of drugs for 4 weeks. After the final treatment, the mice were fasted overnight, and then sacrificed. Serum and liver tissue samples were stored at −80° C., which could be compared with untreated MCD mice (“MCD”) and normal mice (“Nor” or “Normal”). The dosing amounts for each group were as follows: low-dose 25S-Antcin C (“ACS-L”): 10 mg/kg; high-dose 25S-Antcin C (“ACS-H”): 20 mg/kg; obeticholic acid (“OCA”): 10 mg/kg.
After the final treatment, the mice were sacrificed, and the liver tissue samples were fixed overnight in 4% paraformaldehyde, embedded in paraffin, and sectioned. […]

NASH in MCD model mice [3] = assay: Serum ALT and AST in MCD mice, Example 12; type: in vivo, C57BL/6J mice; conditions: oral 4 weeks, 10 and 20 mg/kg, better than obeticholic acid 10 mg/kg, FIG. 17B
Description: as §1
After the final treatment and overnight fasting, mice were anesthetized, and blood was collected from the tail vein. Whole blood was allowed to stand for 2 hours, centrifuged at 6000 rpm for 10 minutes, and the supernatant was used to measure serum alanine aminotransferase (ALT) and aspartate aminotransferase (AST) levels using ALT assay kit and AST assay kit (Bote Biotech, Beijing).

[4] = test system: mouse primary liver cells; assay: Oleic acid-palmitic acid induced lipid deposition with RDH10 siRNA knockdown, mouse primary liver cells (Oil Red O); type: cell-based; conditions: 20 μM
RDH10 [5] = target: T2, RDH10 (Mus musculus, UniProt Q8VCH7); assay: Cellular thermal shift assay (CETSA / ITDRFCETSA); type: binding
T2 construct: Take approximately 50 mg of liver tissue from C57BL/6J mice and add 1 mL of RIPA lysis buffer; from tissue; host or cells: mouse liver (C57BL/6J) lysate
T2 sequence (Q8VCH7 1-341): T1 sequence (Q8IZV5 1-341) with N99K, H107P, K278R, I287V
Description: • 1. Mouse liver total protein (500 μg/mL) was incubated at room temperature for 2 hours with either 25S-Antcin C (100 μM) or an equal volume of DMSO. • 2. After incubation, the 25S-Antcin C-treated group and the DMSO control group were aliquoted into 13 PCR tubes, with 30 μL per tube, and placed on ice. • 3. In a PCR machine, a gradient heating program for CETSA was set up with 12 temperature points (37, 41, 45, 49, 53, 57, 61, 65, 69, 73, 77, 81° C.). The 13 samples from the 25S-Antcin C-treated group and the DMSO control group were heated at each temperature point for 3 minutes, then immediately taken out and incubated at room temperature for 3 minutes, followed by rapid cooling on ice. • 4. The samples were transferred to 1.5 mL EP tubes and centrifuged at 15,000 rpm for 40 minutes at 4° C. • 5. The supernatant was transferred to new EP tubes, mixed with 5×SDS-PAGE loading buffer, and boiled for 5 minutes to denature the proteins. Western Blot was then performed.

RDH10 [6] = target: T2, RDH10; assay: Protein fishing (pull-down) with molecular probe and proteomics analysis; type: binding, C57BL/6J mice; conditions: 400 μM ACS against 40 μM ACS-biotin
Description: • 1. Preparation of Liver Protein: Take approximately 50 mg of liver tissue from C57BL/6J mice and add 1 mL of RIPA lysis buffer. Lyse the proteins on ice, then centrifuge at 12,000 rpm for 30 minutes at 4° C. Collect the supernatant, measure the protein concentration using BCA method, and dilute to 1 mg/mL with PBS. • 2. Sample Preparation: Prepare new 1.5 mL EP tubes and divide them into control group, drug group, and competitive inhibition group. Add 100 μL of PBS solution containing 40 μM Biotin to the control group, 100 μL of PBS solution containing 40 μM ACS-biotin (prepared in Example 1) to the drug group, and 100 μL of PBS solution containing 40 μM ACS-biotin and 400 μM ACS to the competitive inhibition group. Then, add 100 μL of liver protein lysate (1 mg/mL) to each tube and incubate on a shaking incubator at 4° C. for 2 hours. • 3. Washing Streptavidin Beads: Add 100 μL of streptavidin beads to new 1.5 mL EP tubes and centrifuge at 2,700 rpm for 1 minute. Discard the supernatant and wash the beads with 100 μL of PBS three times. • 4. Binding and Washing: Add the solutions from step 2 to the washed streptavidin beads. Incubate on a shaking incubator at 4° C. for 2 hours, then centrifuge at 2,700 rpm for 1 minute. Discard the supernatant and wash the beads with 100 μL of PBS three times. • 5. Protein Elution: Add 50 μL of PBS to the beads, mix well, and then add 5×SDS-PAGE sample buffer. Boil for 5 minutes and centrifuge at 13,000 rpm for 5 minutes. Store the supernatant at −20° C. for SDS-PAGE gel electrophoresis. • 6. Protein Detection: Stain with Coomassie Brilliant Blue and cut the gel for proteomics analysis.

[7] = oleic acid-palmitic acid, 24 hours, FIG. 16B

CC[C@H]1[C@@H](O)[C@@H]2[C@H](CC[C@]3(C)[C@@H]([C@H](C)CCC(=O)O)CC[C@@H]23)[C@@]2(C)CC[C@@H](O)C[C@@H]12 [obeticholic acid]
serious side effects in clinical trials [1]: severe pruritus

C=C(CC[C@@H](C)[C@H]1CC[C@H]2C3=C(C(=O)C[C@]12C)[C@@]1(C)CCC(=O)[C@@H](C)[C@@H]1C[C@@H]3O)[C@H](C)C(=O)O [25S-Antcin C]
Kd (RDH10 protein): 8.31 µM | effect on reducing lipid deposition in the RDH10 siRNA group (L02 human liver cells; RDH10 knockdown): almost completely lost | lipid droplets, Control siRNA group (L02 human liver cells; [7]): significantly reduced in size | liver steatosis and ballooning (NASH in MCD model mice [2]): significantly reduced | serum ALT levels (NASH in MCD model mice [3]): significantly reduced | serum AST levels (NASH in MCD model mice [3]): significantly reduced | effect on reducing lipid deposition in the RDH10 siRNA group ([4]; RDH10 knockdown): almost completely lost | lipid droplets, Control siRNA group [4, 7]: significantly reduced in size | RDH10 protein that did not precipitate (RDH10 [5]; 100 μM, among 53-69 °C): significant increase | stability of RDH10 protein at 61° C. (ITDRFCETSA) (RDH10 [5]; constant 61 °C, 0.01-1000 μM, FIG. 15D): increased with higher concentrations of 25S-Antcin C, stabilizing after 100 μM | CETSA curve of RDH10 (RDH10 [5]; mouse liver total protein, 100 μM, 37-81 °C, compared to DMSO group, FIG. 15C): shift in the CETSA curve | competitive inhibition of probe binding to RDH10 protein (RDH10 [6]): reduces the binding of the molecular probe to the RDH10 protein
